For two compounds, Inhibition results are on record in ChEMBL document CHEMBL1135522, “Novel retinoid X receptor antagonists: specific inhibition of retinoid synergism in RXR-RAR heterodimer actions” (2002).

Test [1] has as its system HL-60. Briefly: Percentage inhibition of human promyelocytic leukemia cells HL-60 differentiation induced by combined RAR and RXR agonists; Range is from 34-73. Format: functional.
Test [2] concerns HL-60. Kind of test: Percentage of human promyelocytic leukemia cells HL-60 differentiation induced by Am80 RAR agonist. The class given is functional.

Turning to `CC1(C)CCC(C)(C)c2cc(N(CC3CC3)c3ncc(C(=O)O)cn3)ccc21`, the Inhibition in the test on HL-60 [1] was found to be 73%.

`CCCCCOc1cc2c(cc1N(C)c1ncc(C(=O)O)cn1)C(C)(C)CCC2(C)C` came in with an Inhibition in the test with HL-60 [2] of 44%.
